According to publication PMC4370448, “Advanced Enzymology, Expression Profile and Immune Response of Clonorchis sinensis Hexokinase Show Its Application Potential for Prevention and Control of Clonorchiasis” (PLoS Neglected Tropical Diseases, 2015):

Tests used:
rCsHK [1] = molecular target: T1, rCsHK (Clonorchis sinensis, UniProt G7YJ23); assay: G6PD-coupled NADPH formation at […] nm, Hill fit; format: biochemical; conditions: 3 mM glucose, 15 mM MgCl2, pH 8.5
T1 construct: gene CLF_109217
T1 sequence (G7YJ23 1-449): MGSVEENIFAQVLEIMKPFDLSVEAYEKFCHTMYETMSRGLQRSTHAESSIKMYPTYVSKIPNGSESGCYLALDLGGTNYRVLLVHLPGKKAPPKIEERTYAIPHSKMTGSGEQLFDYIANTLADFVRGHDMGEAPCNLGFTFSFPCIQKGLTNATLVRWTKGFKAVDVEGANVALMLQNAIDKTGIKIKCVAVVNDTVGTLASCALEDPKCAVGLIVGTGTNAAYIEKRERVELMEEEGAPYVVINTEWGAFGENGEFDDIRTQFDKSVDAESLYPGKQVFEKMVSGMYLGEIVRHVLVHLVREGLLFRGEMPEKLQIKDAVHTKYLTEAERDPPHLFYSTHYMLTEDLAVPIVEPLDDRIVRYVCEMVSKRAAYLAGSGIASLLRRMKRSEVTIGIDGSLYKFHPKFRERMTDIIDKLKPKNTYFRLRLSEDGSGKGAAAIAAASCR

rCsHK [2] = molecular target: T1, rCsHK; assay: G6PD-coupled NADPH formation at […] nm; format: biochemical; conditions: read-out: % inhibition at 10 mM

Structure (SMILES) | inhibition at 10000 µM (rCsHK [2]) | also measured
Nc1ncnc2c1ncn2[C@@H]1O[C@H](COP(=O)(O)O)[C@@H](O)[C@H]1O [AMP] |  | G6PD-coupled NADPH formation at 340 nm, Hill fit (rCsHK [1]; 0-5 mM, allosteric activator, mixed K+V+ with respect to ATP): AMP exhibited a mixed allosteric K+V+ effect
Nc1ncnc2c1ncn2[C@@H]1O[C@H](COP(=O)(O)OP(=O)(O)OP(=O)(O)O)[C@@H](O)[C@H]1O [ATP] | 13.8% | 
Nc1ccn([C@@H]2O[C@H](COP(=O)(O)OP(=O)(O)OP(=O)(O)O)[C@@H](O)[C@H]2O)c(=O)n1 [CTP] | 8.6% | 
C=C(OP(=O)(O)O)C(=O)O [PEP] |  | G6PD-coupled NADPH formation at 340 nm, Hill fit (rCsHK [1]; 0-10 mM, allosteric activator, mixed K+V+ with respect to ATP): PEP displayed allosteric activation of rCsHK with respect to ATP
Cc1cn([C@H]2C[C@H](O)[C@@H](COP(=O)(O)OP(=O)(O)OP(=O)(O)O)O2)c(=O)[nH]c1=O [TTP] | 14.3% | 
O=C(O)CC(O)(CC(=O)O)C(=O)O [citrate] |  | G6PD-coupled NADPH formation at 340 nm, Hill fit (rCsHK [1]; 0-10 mM, allosteric, K+V+ activator at 5 and 10 mM, net inhibition (K-V+) at 2 mM, with respect to ATP): Citrate exhibited an unusual mixed allosteric effect on rCsHK with respect to ATP
